Assay results: patent publication US5620864A, “Acceptor for fucosyl transferase” (Health Research, Inc., priority 1992, dated 1997)
Several values for one entry are separate records, joined by “and”; a condition that tells them apart may be missing. Equal entries are not always repeated.

Key:
[1] = target: T1, serum α1,3-L-fucosyltransferase (Homo sapiens, UniProt P51993); assay: Assay of α1,3-fucosyltransferase with various synthetic acceptors, ovarian cancer sera as enzyme source; type: biochemical
T1 construct: Sera were collected from healthy females and ovarian cancer patients; from tissue; host or cells: blood serum of ovarian cancer patients and healthy females
T1 sequence (P51993 35-359 limits assumed): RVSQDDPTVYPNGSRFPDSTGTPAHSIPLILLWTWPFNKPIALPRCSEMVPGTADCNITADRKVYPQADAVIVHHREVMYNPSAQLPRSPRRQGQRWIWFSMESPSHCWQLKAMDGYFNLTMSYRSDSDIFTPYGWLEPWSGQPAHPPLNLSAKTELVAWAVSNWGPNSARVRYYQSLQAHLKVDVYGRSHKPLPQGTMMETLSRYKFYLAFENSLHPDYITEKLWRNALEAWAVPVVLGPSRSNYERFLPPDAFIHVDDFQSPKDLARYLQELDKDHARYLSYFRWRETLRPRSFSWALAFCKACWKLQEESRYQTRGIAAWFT
Procedure: (§1) Sera were collected from healthy females and ovarian cancer patients admitted to Roswell Park Cancer Institute in Buffalo, N.Y., USA. Ovarian tumor tissues were obtained during surgical procedures from patients with ovarian cancer. Both sera and tissues were stored frozen at -70° C. until use.
(§2) An incubation mixture contained 50 mM HEPES-NaOH, pH 7.5, 5 mM MnC12, 7 mM ATP, 3 mM NaN3, the acceptor 0.3 mM (for serum enzyme) or 3.0 mM (for tumor enzyme), 0.125 μCi of GDP-[U-^14 C] Fuc (Sp. Act. 216 mCi/mmol) and enzyme in a total volume of 0.10 ml; the control incubation mixture had everything except the acceptor. At the end of incubation at 37° C. for 18 h, the mixture was diluted with 1 ml water and passed through Dowex-1-C1 column (1 ml in a Pasteur pipet). The column was washed twice with 1 ml water; the breakthrough and wash, which contained the [^14 C] fucosylated neutral acceptor, were collected together in a scintillation vial and counted for radioactivity using the scintillation coctail 3a70 (Research Products International, Mount Prospects, Ill.) and Beckman LS9000. The Dowex column was then eluted successively with 3 ml each of 0.1M and 0.2M NaCl; these eluates which contained the [^14 C] fucosylated sulfated acceptors, were counted for radioactivity as before. Corrections were made by subtracting the radioactivity in the water and NaCl eluates of the control incubation mixture from the corresponding test fractions. The duplicate runs of samples gave almost identical values, the difference being <5%.
The activity of serum α1,3-fucosyltransferase was measured with the specific substrate 2'-methyl LacNAc and compared with the ability of several other synthetic substrates to act as an acceptor of fucose.
When the structure of the acceptor 2'-methyl LacNAc was modified by replacing the methyl group with sulfate group in C-2', 3', 6' or 6 position and tested their ability to act as the acceptor of fucose, the following novel findings emerged. […] The β-benzyl glycoside of 3' sulfo LacNAc was quite active (168.4%) but less than the parent compound.

[2] = system: α1,3-L-fucosyltransferase of the particulate fraction of ovarian tumor; assay: Assay of α1,3-fucosyltransferase with synthetic acceptors, ovarian tumor particulate fraction; type: biochemical, human
Procedure: FIG. 2 The scheme for the preparation of the particulate and soluble fractions of human ovarian tumor.
as §2
This finding is quite different from what we found with the soluble fraction, where α1,4-fucosyltransferase activity seems to be greater than α1,3-fucosyltransferase activity. […] The different nature of the above enzymes was made further clear, when sulfated derivatives of LacNAc was tested as acceptors.

[3] = system: serum α1,3-L-fucosyltransferase; assay: Acceptor ability in presence of the competitive substrate (3'-sulfo LacNAc vs 2'-methyl LacNAc), ovarian cancer sera; type: biochemical, human
Procedure: as §2
(§3) The superiority of 3'-sulfo LacNAc over 2'-methyl LacNAc as the substrate for measuring serum α1,3 fucosyltransferase was tested in three different ways. First, the incubation mixtures in duplicate contained 0.3 mM 3'-sulfo LacNAc and varying amounts of 2'-methyl LacNAc (0 to 7.5 mM); the incorporation of [^14 C] fucose by the serum enzyme into both substrates was measured (Table III). The incorporation of [^14 C] fucose into 3'-sulfo LacNAc decreased and into 2'-methyl LacNAc increased with the increase in the concentration of the latter. […] 25 fold less than 2' methyl LacNAc. Secondly, the incubation mixtures in duplicate contained 3.0 mM 2'-methyl LacNAc and varying amounts of 3'-sulfo LacNAc (0 to 0.75 mM); the incorporation of [^14 C] fucose by the same serum enzyme into both substrates was measured (Table III). The [^14 C] fucose incorporation into 2'-methyl LacNAc decreased and into 3'-sulfo LacNAc increased by increasing the concentration of the latter. […] Thirdly, both 2'-methyl LacNAc and 3'-sulfo LacNAc at 0.3 mM concentration were incubated separately in duplicates with six ovarian cancer sera and one normal serum; the incorporation of [^14 C] fucose into these acceptors were quantitated (Table IV). The [^14 C] fucose incorporation into 3'-sulfo LacNAc was consistently higher (4-5 fold) than that into 2'-methyl LacNAc, including the assay of the normal serum. […] These values indicate that 3'-sulfo LacNAc is a very high affinity acceptor for α1,3 fucosyltransferase. The [^14 C] fucosylated product arising from 3'-sulfo LacNAc has been tentatively identified as 3'-sulfo, 3-fucosyl LacNAc by comparing strictly its mobility on paper with the synthetic authentic compound 3'-sulfo, 3-fucosyl LacNAc (see FIG. 5).

[4] = target: T1, serum α1,3-L-fucosyltransferase; assay: Detection of serum α1,3-L-fucosyltransferase in six ovarian cancer sera and one normal serum; type: biochemical; conditions: for percentage of the ratio between the CPM obtained for cancer serum and normal serum: acceptor 0.30 mM
Procedure: as §1, §2, §3

[5] = 2'-methyl LacNAc = 100, listed as 3'-Sulfo LacNAc
[6] = 2'-methyl LacNAc = 100, listed as 3'-sulfo LacNAc

How did the “Relative Percent” value ([1]; 2'-methyl LacNAc = 100) turn out when CC(=O)N[C@H]1C(O)O[C@H](CO)[C@@H](O[C@@H]2O[C@H](CO)[C@H](O)[C@H](OS(=O)(=O)O)[C@H]2O)[C@@H]1O (stereo partly drawn) [3'-Sulfo-LacNAc, SODIUM β-D-GALACTOPYRANOSYL 3-SULFATE-(1→4)-2-ACETAMIDO-2-DEOXY-D-GLUCOPYRANOSE] was run?
Its value is 340.8%.

What about the “Relative Percent” value [1, 5] of the same compound?
Its value is 340.8%.

And the “Relative Percent” value [1, 6]?
Its value is 340.8%.

And the “Relative Percent” value ([1]; 2'-methyl LacNAc = 100, listed as 3'-sulfo-LacNAc)?
The value was 340%.

And the “[14C] Fucose Incorporated (CPM)” value ([1]; acceptor 0.3 mM, 37° C. 18 h)?
The value was 5894 CPM.

And the “Relative Percent” value ([2]; 2'-methyl LacNAc = 100)?
The value was 39.0%.

And the “Relative Percent” value [2, 5]?
Its value is 39%.

What about the “Relative Percent” value [2, 6] of the same compound?
Its value is 39.0%.

What about the “[14C] Fucose Incorporated (CPM)” value ([2]; acceptor 3.0 mM, 37° C. 18 h) of the same compound?
The value was 18793 CPM.

And the “Incorporation of [14C] Fucose (CPM)” value ([3]; 2'-Methyl LacNAc 3.0 mM + 3'-Sulfo LacNAc 0 mM)?
The value was 140 CPM.

And the “Incorporation of [14C] Fucose (CPM)” value ([3]; 2'-Methyl LacNAc 3.0 mM + 3'-Sulfo LacNAc 0.15 mM)?
Its value is 1294 CPM.

What about the “Incorporation of [14C] Fucose (CPM)” value ([3]; 2'-Methyl LacNAc 3.0 mM + 3'-Sulfo LacNAc 0.30 mM) of the same compound?
Its value is 2181 CPM.

What about the “Incorporation of [14C] Fucose (CPM)” value ([3]; 2'-Methyl LacNAc 3.0 mM + 3'-Sulfo LacNAc 0.45 mM) of the same compound?
Its value is 2417 CPM.

And the “Incorporation of [14C] Fucose (CPM)” value ([3]; 2'-Methyl LacNAc 3.0 mM + 3'-Sulfo LacNAc 0.65 mM)?
The value was 2373 CPM.

What about the “Incorporation of [14C] Fucose (CPM)” value ([3]; 2'-Methyl LacNAc 3.0 mM + 3'-Sulfo LacNAc 0.75 mM) of the same compound?
Its value is 2560 CPM.

What about the “Incorporation of [14C] Fucose (CPM)” value ([3]; 3'-Sulfo LacNAc 0.3 mM + 2'-Methyl LacNAc 0 mM) of the same compound?
Its value is 2520 CPM.

And the “Incorporation of [14C] Fucose (CPM)” value ([3]; 3'-Sulfo LacNAc 0.3 mM + 2'-Methyl LacNAc 1.5 mM)?
Its value is 2132 CPM.

And the “Incorporation of [14C] Fucose (CPM)” value ([3]; 3'-Sulfo LacNAc 0.3 mM + 2'-Methyl LacNAc 3.0 mM)?
Its value is 1872 CPM.

What about the “Incorporation of [14C] Fucose (CPM)” value ([3]; 3'-Sulfo LacNAc 0.3 mM + 2'-Methyl LacNAc 4.5 mM) of the same compound?
Its value is 1748 CPM.

And the “Incorporation of [14C] Fucose (CPM)” value ([3]; 3'-Sulfo LacNAc 0.3 mM + 2'-Methyl LacNAc 6.0 mM)?
Its value is 1712 CPM.

And the “Incorporation of [14C] Fucose (CPM)” value ([3]; 3'-Sulfo LacNAc 0.3 mM + 2'-Methyl LacNAc 7.5 mM)?
The value was 1428 CPM.

What about the “inhibition of the [14C] fucose incorporation into 2'-methyl LacNAc” value ([3]; 3'-Sulfo LacNAc 0.75 mM, 2'-methyl LacNAc 3.0 mM) of the same compound?
The value was 68%.

What about the Km ([3]; 3'-sulfo LacNAc in presence of 3.0 mM 2'-methyl LacNAc, serum enzyme) of the same compound?
The Km was 120 µM.

And the “Incorporation of [14C] Fucose (CPM) into the Acceptor (0.30 mM)” value (“Incorporation of [14C] Fucose … (0.30 mM)” below) ([4]; Normal Serum)?
The value was 1543 CPM.

And the “Ratio B/A (CPM into 3'-Sulfo LacNAc / CPM into 2'-Methyl LacNAc)” value ([4]; Normal Serum)?
Its value is 3.89.

And the “Incorporation of [14C] Fucose … (0.30 mM)” value ([4]; Ovarian Cancer Serum 1)?
The value was 7310 CPM.

What about the “Ratio B/A (CPM into 3'-Sulfo LacNAc / CPM into 2'-Methyl LacNAc)” value ([4]; Ovarian Cancer Serum 1) of the same compound?
The value was 5.52.

What about the “percentage of the ratio between the CPM obtained for cancer serum and normal serum” value ([4]; Ovarian Cancer Serum 1) of the same compound?
The value was 474%.

What about the “Incorporation of [14C] Fucose … (0.30 mM)” value ([4]; Ovarian Cancer Serum 2) of the same compound?
The value was 9816 CPM.

And the “Ratio B/A (CPM into 3'-Sulfo LacNAc / CPM into 2'-Methyl LacNAc)” value ([4]; Ovarian Cancer Serum 2)?
Its value is 6.69.

And the “percentage of the ratio between the CPM obtained for cancer serum and normal serum” value ([4]; Ovarian Cancer Serum 2)?
The value was 636%.

And the “Incorporation of [14C] Fucose … (0.30 mM)” value ([4]; Ovarian Cancer Serum 3)?
Its value is 5261 CPM.

What about the “Ratio B/A (CPM into 3'-Sulfo LacNAc / CPM into 2'-Methyl LacNAc)” value ([4]; Ovarian Cancer Serum 3) of the same compound?
Its value is 3.87.

And the “percentage of the ratio between the CPM obtained for cancer serum and normal serum” value ([4]; Ovarian Cancer Serum 3)?
The value was 341%.

And the “Incorporation of [14C] Fucose … (0.30 mM)” value ([4]; Ovarian Cancer Serum 4)?
The value was 5480 CPM.

And the “Ratio B/A (CPM into 3'-Sulfo LacNAc / CPM into 2'-Methyl LacNAc)” value ([4]; Ovarian Cancer Serum 4)?
Its value is 4.06.

What about the “percentage of the ratio between the CPM obtained for cancer serum and normal serum” value ([4]; Ovarian Cancer Serum 4) of the same compound?
Its value is 355%.

What about the “Incorporation of [14C] Fucose … (0.30 mM)” value ([4]; Ovarian Cancer Serum 5) of the same compound?
The value was 3088 CPM.

And the “Ratio B/A (CPM into 3'-Sulfo LacNAc / CPM into 2'-Methyl LacNAc)” value ([4]; Ovarian Cancer Serum 5)?
Its value is 4.42.

And the “percentage of the ratio between the CPM obtained for cancer serum and normal serum” value ([4]; Ovarian Cancer Serum 5)?
Its value is 200%.

What about the “Incorporation of [14C] Fucose … (0.30 mM)” value ([4]; Ovarian Cancer Serum 6) of the same compound?
The value was 5483 CPM.

What about the “Ratio B/A (CPM into 3'-Sulfo LacNAc / CPM into 2'-Methyl LacNAc)” value ([4]; Ovarian Cancer Serum 6) of the same compound?
Its value is 5.62.

And the “percentage of the ratio between the CPM obtained for cancer serum and normal serum” value ([4]; Ovarian Cancer Serum 6)?
Its value is 355%.

And the “sensitivity / [14C] fucose incorporation relative to 2'-methyl LacNAc” value ([4]; blood sera, acceptors 0.3 mM)?
Its value is 3 to 5 fold and 4-5 fold.

What about the “α1,3 fucosyltransferase activity of the cancer sera as compared to the normal serum” value ([4]; range over six ovarian cancer sera, acceptor 0.3 mM) of the same compound?
The value was 200%-636%.
